# Measurements taken from patent publication US20260097017A1, “TASIPIMIDINE AND CYP2D6 INHIBITOR COMBINATION TREATMENT” (ORION CORPORATION, priority 2022, published 2026).
# Where two headings read alike, the source gives them in different places.
# T1: CYP1A2 (Homo sapiens, UniProt P05177)
# T1 construct: purchased; host or cells: baculovirus-transfected insect cells
# T1 sequence (P05177 1-516): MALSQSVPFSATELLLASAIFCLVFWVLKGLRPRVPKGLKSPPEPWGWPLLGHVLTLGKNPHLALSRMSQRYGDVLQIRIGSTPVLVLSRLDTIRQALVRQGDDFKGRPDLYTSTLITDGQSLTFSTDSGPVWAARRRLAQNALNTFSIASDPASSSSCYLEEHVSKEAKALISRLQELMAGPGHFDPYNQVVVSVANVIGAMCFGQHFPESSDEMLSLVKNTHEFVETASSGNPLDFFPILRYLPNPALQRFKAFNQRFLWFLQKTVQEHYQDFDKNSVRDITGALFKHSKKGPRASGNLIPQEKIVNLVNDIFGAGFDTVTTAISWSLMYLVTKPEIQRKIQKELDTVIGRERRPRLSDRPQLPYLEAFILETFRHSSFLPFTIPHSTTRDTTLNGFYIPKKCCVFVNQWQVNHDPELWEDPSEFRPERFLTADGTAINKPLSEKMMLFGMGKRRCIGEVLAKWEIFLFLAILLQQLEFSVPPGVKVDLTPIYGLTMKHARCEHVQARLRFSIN
# T2: CYP1A1 (Homo sapiens, UniProt P04798)
# T2 construct: purchased; host or cells: baculovirus-transfected insect cells
# T2 sequence (P04798 1-512): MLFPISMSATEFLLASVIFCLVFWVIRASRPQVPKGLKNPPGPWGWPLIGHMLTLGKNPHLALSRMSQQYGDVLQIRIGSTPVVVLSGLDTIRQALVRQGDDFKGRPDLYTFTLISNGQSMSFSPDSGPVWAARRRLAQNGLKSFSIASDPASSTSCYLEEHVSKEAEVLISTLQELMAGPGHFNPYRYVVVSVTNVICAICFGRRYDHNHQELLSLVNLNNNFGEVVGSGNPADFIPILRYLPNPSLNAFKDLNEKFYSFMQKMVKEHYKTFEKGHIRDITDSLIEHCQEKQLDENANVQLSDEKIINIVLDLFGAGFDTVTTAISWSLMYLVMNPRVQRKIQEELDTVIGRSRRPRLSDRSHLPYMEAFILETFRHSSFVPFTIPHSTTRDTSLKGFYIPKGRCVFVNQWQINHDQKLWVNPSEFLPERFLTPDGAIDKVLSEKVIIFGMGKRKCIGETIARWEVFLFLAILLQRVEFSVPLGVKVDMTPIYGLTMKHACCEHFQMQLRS
# B1: rhCYP2D6 (Homo sapiens) (protein)
# chain: MGLEALVPLAVIVAIFLLLVDLMHRRQRWAARYPPGPLPLPGLGNLLHVDFQNTPYCFDQLRRRFGDVFSLQLAWTPVVVLNGLAAVREALVTHGEDTADRPPVPITQILGFGPRSQGVFLARYGPAWREQRRFSVSTLRNLGLGKKSLEQWVTEEAACLCAAFANHSGRPFRPNGLLDKAVSNVIASLTCGRRFEYDDPRFLRLLDLAQEGLKEESGFLREVLNAVPVLLHIPALAGKVLRFQKAFLTQLDELLTEHRMTWDPAQPPRDLTEAFLAEMEKAKGNPESSFNDENLRIVVADLFSAGMVTTSTTLAWGLLLMILHPDVQRRVQQEIDDVIGQVRRPEMGDQAHMPYTTAVIHEVQRFGDIVPLGVTHMTSRDIEVQGFRIPKGTTLITNLSSVLKDEAVWEKPFRFHPEHFLDAQGHFVKPEAFLPFSAGRRACLGEPLARMELFLFFTSLLQHFSFSVPTGQPRPSHHGVFAFLVSPSPYELCAVPR
# notes: purchased; host or cells: baculovirus-transfected insect cells
# B2: CYP2D6 (Homo sapiens) (protein)
# chain: MGLEALVPLAVIVAIFLLLVDLMHRRQRWAARYPPGPLPLPGLGNLLHVDFQNTPYCFDQLRRRFGDVFSLQLAWTPVVVLNGLAAVREALVTHGEDTADRPPVPITQILGFGPRSQGVFLARYGPAWREQRRFSVSTLRNLGLGKKSLEQWVTEEAACLCAAFANHSGRPFRPNGLLDKAVSNVIASLTCGRRFEYDDPRFLRLLDLAQEGLKEESGFLREVLNAVPVLLHIPALAGKVLRFQKAFLTQLDELLTEHRMTWDPAQPPRDLTEAFLAEMEKAKGNPESSFNDENLRIVVADLFSAGMVTTSTTLAWGLLLMILHPDVQRRVQQEIDDVIGQVRRPEMGDQAHMPYTTAVIHEVQRFGDIVPLGVTHMTSRDIEVQGFRIPKGTTLITNLSSVLKDEAVWEKPFRFHPEHFLDAQGHFVKPEAFLPFSAGRRACLGEPLARMELFLFFTSLLQHFSFSVPTGQPRPSHHGVFAFLVSPSPYELCAVPR
# Key:
# [1] = background statement; cited from earlier work
# [2] = Renal clearance (PBPK input parameter); conditions: human, in vivo; input parameter of the PBPK model
# Description: (§1) A physiologically based pharmacokinetic (PBPK) model was used to simulate the plasma exposure of tasipimidine in fasted healthy 30 years old males of 70 kg with different CYP2D6 phenotypes. Simulations were produced with the commercial GastroPlus® 9.8.2 software.
# [3] = molecular target: T1, CYP1A2; test: Recombinant human CYP incubations (enzyme identification); format: in vitro ADME
# Procedure: (§2) The objective of these studies was to identify enzymes involved in the metabolism of tasipimidine in human. The test substance tasipimidine and the reference compounds for main tasipimidine metabolites 1-(4,5-dihydro-1H-imidazol-2-yl) isochroman-5-ol (metabolite 1), 2-(5-methoxyisochroman-1-yl)-1H-imidazole (metabolite 2), and 1-(1H-imidazol-2-yl) isochroman-5-ol (metabolite 3) were supplied by Orion Pharma. To further support the findings of recombinant enzyme incubations tasipimidine was incubated with human hepatocytes with two enzyme inhibitors, i.e. 1-aminobenzotriazole (ABT, non-selective CYP inhibitor), and quinidine (CYP2D6 inhibitor).
# (§3) The analysis for disappearance of tasipimidine and the identification of the formed metabolites were carried out by using a high-resolution liquid chromatographic-mass spectrometer supported by accurate masses (UPLC-HRMS). Firstly, metabolic stability of tasipimidine in different in vitro matrices was determined by monitoring the disappearance of the parent compound as a function of time. Moreover, structures of the formed metabolites were characterized from their respective product ion spectra. The synthetized reference compounds of the metabolites were used to confirm the identification of those specific metabolites.
# [4] = molecular target: T3, CYP2C19 (Homo sapiens, UniProt P33261); test: as above; format: in vitro ADME
# T3 construct: purchased; host or cells: baculovirus-transfected insect cells
# Procedure: as §2, §3
# [5] = molecular target: T2, CYP1A1; test: as above; format: in vitro ADME
# Procedure: as §2, §3
# [6] = First-in-man single-dose escalation study, plasma PK; format: in vivo; conditions: both sexes, human, po, mean
# Procedure: The first-in-man study was a randomized, double-blind, placebo-controlled, single-dose escalation study with healthy female and male subjects aged 18-44 years. The subjects were allocated to cohorts of 8 subjects of which 6 received active treatment and 2 received placebo. Each subject received either 1 dose of tasipimidine oral solution or 1 dose of placebo oral solution during the study. The studied doses of tasipimidine were 10, 25, 50, 100, and 150 μg as oral solution.
# (§4) The subjects were genotyped for CYP2D6 on screening. The translation of CYP2D6 genotype to CYP2D6 phenotype was done according to the national consensus published by the Dutch Pharmacogenetics Working Group from KNMP (https://www.knmp.nl/index.php/media/113). The subjects with CYP2D6 poor metabolizer genotype were excluded from the study. The translation of CYP2D6 genotype to activity score was done according to the CYP2D6 Allele Functionality Table of PharmGKB (https://www.pharmgkb.org/page/cyp2d6RefMaterials).
# Frequent blood samples were taken through an intravenous cannula for the assessment of the concentration of tasipimidine and its metabolite 1 in plasma. The sampling times were before (0 h) and 15 min, 30 min, 45 min, 1, 1.5, 2, 3, 4, 5, 6, 8, 10, 12, 16, and 24 hours after the study treatment administration. The PK parameters were calculated from the plasma concentration-time data by noncompartmental method using the commercial Phoenix WinNonlin software version 8.3.
# [7] = Caco-2 permeability (PBPK input parameter); format: in vitro ADME; conditions: human, input parameter of the PBPK model
# Description: as §1
# [8] = Paroxetine co-treatment crossover PK study in healthy subjects; format: in vivo, human; conditions: 10 μg oral, mean, n = 5; for AUC(0-inf) / Cmax / half-life: human, plasma; for half-life: read-out: t½ (converted)
# Procedure: Effect of co-treatment with a strong CYP2D6 inhibitor paroxetine on the PK of tasipimidine was studied. The study was an open label, crossover study with 5 healthy female and/or male subjects aged 26-51 years. The study started with a 8 days long once daily treatment of paroxetine 20 mg tablet. On the last day of paroxetine treatment, a single 10 μg dose of tasipimidine as oral solution was administered 1 h after the paroxetine intake after an overnight fast.
# as §4
# Frequent blood samples were taken through an intravenous cannula for the assessment of the concentration of tasipimidine and its metabolite 1 in plasma. The sampling times were before (0 h) and 20 min, 40 min, 1, 1.5, 2, 2.5, 3, 3.5, 4, 5, 6, 8, 12, 24, 36, and 48 hours after the study treatment administration. The PK parameters were calculated from the plasma concentration-time data by noncompartmental method using the commercial Phoenix WinNonlin software version 8.3.
# [9] = molecular target: T4, CYP2D6 (Homo sapiens, UniProt P10635); test: Incubation with rhCYP2D6 Supersomes: intrinsic clearance and enzyme kinetics; format: in vitro ADME; parameters: purchased; host or cells: baculovirus-transfected insect cells
# Procedure: as §2
# (§5) Moreover, enzyme kinetics of tasipimidine metabolism was studied in rhCYP2D6.
# (§6) Enzyme kinetics of tasipidimine metabolism by rhCYP2D6 was studied by incubating the test compound at 0.16, 0.41, 1, 2.6, 6.4, 16, 40 and 100 μM concentrations containing 10 pmol/ml of the CYP enzyme for 0, 5, 10, 20, and 30 min. Enzyme kinetics was estimated from CLint values measured for the test compound at different concentrations while metabolite characterisation was not performed.
# (§7) The analysis for disappearance of tasipimidine and the identification of the formed metabolites were carried out by using a high-resolution liquid chromatographic-mass spectrometer supported by accurate masses (UPLC-HRMS). […]
# [10] = molecular target: T4, CYP2D6; test: CYP2D6 kinetic parameters (PBPK input parameters); format: in vitro ADME; conditions: input parameter of the PBPK model
# Description: as §1
# [11] = Blood to plasma ratio and fraction unbound in plasma (PBPK input parameters); format: in vitro ADME; conditions: human, input parameter of the PBPK model
# Description: as §1
# [12] = dogs, triggered by noise or owner departure; cited from earlier work
# [13] = Physicochemical input parameters of the PBPK model; conditions: input parameter of the PBPK model
# Description: as §1
# [14] = substrate: COc1cccc2c1CCOC2C1=NCCN1; test: Incubation with rhCYP2D6 Supersomes: intrinsic clearance and enzyme kinetics; format: in vitro ADME, human; conditions: other: rhCYP2D6, 0.16-100 μM, 10 pmol/ml CYP
# Procedure: as §2, §5, §6, §7
# [15] = substrate: COc1cccc2c1CCOC2C1=NCCN1; test: CYP2D6 kinetic parameters (PBPK input parameters); format: in vitro ADME; conditions: other: input parameter of the PBPK model
# Description: as §1
# [16] = with paroxetine 20 mg once daily for 8 days
# T3 sequence (P33261 whole entry): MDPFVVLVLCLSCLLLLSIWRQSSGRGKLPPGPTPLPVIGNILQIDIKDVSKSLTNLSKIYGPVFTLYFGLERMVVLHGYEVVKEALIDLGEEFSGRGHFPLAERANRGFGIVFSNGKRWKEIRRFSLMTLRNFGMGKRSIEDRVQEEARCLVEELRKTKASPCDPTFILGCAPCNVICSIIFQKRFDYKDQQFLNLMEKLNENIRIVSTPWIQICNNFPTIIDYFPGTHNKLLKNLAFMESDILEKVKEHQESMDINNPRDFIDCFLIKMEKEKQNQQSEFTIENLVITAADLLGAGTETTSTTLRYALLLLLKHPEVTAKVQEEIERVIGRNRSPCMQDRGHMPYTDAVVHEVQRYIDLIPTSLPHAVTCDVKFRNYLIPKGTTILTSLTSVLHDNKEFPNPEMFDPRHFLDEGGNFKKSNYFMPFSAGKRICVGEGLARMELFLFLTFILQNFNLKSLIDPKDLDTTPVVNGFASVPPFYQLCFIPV
molecule,measurement,setting,value
Clc1cccc(Cl)c1N=C1NCCN1 [clonidine],elimination half-life (t1/2),[1],14 h
"COc1cccc2c1CCOC2C1=NCCN1 (stereo not drawn) [tasipimidine, 2-(5-methoxyisochroman-1-yl)-4,5-dihydro-1H-imidazole]",CL renal,[2],105 mL/min
same,contribution of enzyme to tasipimidine metabolism,[3],minor contributors
same,contribution of enzyme to tasipimidine metabolism,[4],minor contributors
same,contribution of enzyme to tasipimidine metabolism,[5],minor contributors
same,AUC(0-inf),"[6]; 10 ug, 10 μg single oral dose, corrected by CYP2D6 genotype based activity score, n = 6, read-out: AUCinf * AS",0.09 ng·h/mL
same,AUC(0-inf),"[6]; 10 ug, 10 μg single oral solution dose, n = 6, healthy subjects, read-out: AUCinf",0.052 ng·h/mL
same,AUC(0-inf),"[6]; 25 ug, 25 μg single oral dose, corrected by CYP2D6 genotype based activity score, n = 6, read-out: AUCinf * AS",0.254 ng·h/mL
same,AUC(0-inf),"[6]; 25 ug, 25 μg single oral solution dose, n = 6, healthy subjects, read-out: AUCinf",0.186 ng·h/mL
same,AUC(0-inf),"[6]; 50 ug, 50 μg single oral dose, corrected by CYP2D6 genotype based activity score, n = 6, read-out: AUCinf * AS",0.475 ng·h/mL
same,AUC(0-inf),"[6]; 50 ug, 50 μg single oral solution dose, n = 6, healthy subjects, read-out: AUCinf",0.36 ng·h/mL
same,AUC(0-inf),"[6]; 100 ug, 100 μg single oral dose, corrected by CYP2D6 genotype based activity score, n = 6, read-out: AUCinf * AS",1.03 ng·h/mL
same,AUC(0-inf),"[6]; 100 ug, 100 μg single oral solution dose, n = 6, healthy subjects, read-out: AUCinf",1.03 ng·h/mL
same,AUC(0-inf),"[6]; 150 ug, 150 μg single oral dose, corrected by CYP2D6 genotype based activity score, n = 6, read-out: AUCinf * AS",2.03 ng·h/mL
same,AUC(0-inf),"[6]; 150 ug, 150 μg single oral solution dose, n = 6, healthy subjects, read-out: AUCinf",1.74 ng·h/mL
same,Papp,[7],15.4 ×10⁻⁶ cm/s
same,AUCinf ratio with/without paroxetine,[8],3.1
same,Cmax ratio with/without paroxetine,[8],1.9
same,t½ ratio with/without paroxetine,[8],1.7
same,AUC(0-inf),"[8]; 10 ug, without paroxetine",0.106 ng·h/mL
same,Cmax,"[8]; 10 ug, without paroxetine",0.026 ng/mL
same,half-life,"[8]; 10 ug, without paroxetine",2.6 h
same,AUC(0-inf),[8]; [16],0.281 ng·h/mL
same,Cmax,[8]; [16],0.047 ng/mL
same,half-life,[8]; [16],4.3 h
same,contribution of enzyme to tasipimidine metabolism,"[9]; CYP2D6, human in vitro systems",major enzyme
same,intrinsic clearance (CLint),[9]; tasipimidine 1 μM in rhCYP2D6,1.75 μl/min/pmol CYP
same,Vmax for CYP2D6,[10],0.000043 mg/s
same,blood plasma ratio,[11]; blood and plasma,1.13
same,fraction unbound,[11]; plasma,0.86
same,relief of situational anxiety and fear,[12],effective in relieving situational anxiety and fear
same,logP,[13],1.66
same,pKa,[13],9.24
B1,Km,[14],0.53 µM
same,kcat,[14],3.1 pmol/min/pmol CYP
B2,Km,[15],0.106 mg/L
